IC50 data for 16 compounds are collected here from US5238938A, “Indole derivatives” (Otsuka Pharmaceutical Co., Ltd., priority 1989, dated 1993).

In brackets after ≈: the same amount, converted by molar mass.

The subject of the test is superoxide radicals (O2^-) released from the peritoneal macrophage cells of guinea pig. Briefly: Inhibitory effect against superoxide radicals (O2^-) released from the peritoneal macrophage cells of guinea pig by stimulation. It is filed as cell-based. To be noted: Cavia porcellus, Peritoneal macrophage cell; guinea pig peritoneal macrophages 2×10^6 cells/ml; FMLP 10^-7 M; cytochrome C reduction, OD550; 37° C.; read-out: 50% inhibitory concentration (IC50), superoxide radical release. How it is done:
Inhibitory effect against superoxide radicals (O2^-) released from the peritoneal macrophage cells of guinea pig by stimulation
Mineral oil (15 ml) was intraperitoneally administered to a guinea pig, then 96 hours after the administration, the peritoneal macrophage cells were samples.
Superoxide redicals (O2^-) were determined by means of reduction of cytochrome C method according to the procedure described in an article by T. Matsumoto, K. Takeshige and S. Minakami: Biochemical and Biophysical Research Communications, Vol. 88, No. 3, pp. 974-979, (1979).
The peritoneal macrophage cells were added to make the final concentration of 2×10^6 cells/ml into 1 ml of 80 μM-cytochome C solution, and the test compound of indole derivative of the present invention was added thereto to make the test group sample. On the other hand, water was added in place of the indole derivative of the present invention to make the control group sample. Each of the test group sample and the control group sample was subjected to pure incubaiton at 37° C. for 1 minute.
As to the stimulating agent for releasing superoxide radicals (O2^-), FMLP (formylmethionyl leucyl phenylalanine) was added to make the final concentration thereof to 10^-7 M, to each of the test group sample and the control group sample. Then both samples were subjected to additional reaction by incubation for 1 minute.
Difference of the optical absorbances measured at 550 nm (OD550) of both test group and control group samples were determined, and the 50% inhibitory concentration (IC50) was obtained by calculating as the ratio of OD550 of the test group sample to that of the control group sample.
As for `COc1nc(CC(C)C)c(=O)[nH]c1Cc1c[nH]c2ccccc12` [Compound A-16], the IC50 was 50 µg/mL (≈ 161 µM). The result for `COC1=N[C@@H](CC(C)C)C(=O)N/C1=C\c1c[nH]c2ccccc12` [Compound A-17, (3S,Z)-6-(Indol-3-yl)methylidene-3-isobutyl-5-methoxy-1,2,3,6-tetrahydropyrazin-2-one] reads 15 µg/mL (≈ 48.2 µM); that for `CC(C)C[C@H]1C(=O)N[C@@H](Cc2c[nH]c3ccccc23)C(=O)N1O` [Compound A-29a, (3S,6S)-1-Hydroxy-3-(indol-3-yl)methyl-6-isobutylpiperazine-2,5-dione], 50 µg/mL (≈ 159 µM); that for `CC(C)C[C@@H]1C(=O)N[C@@H](Cc2c[nH]c3ccccc23)C(=O)N1O` [Compound A-30a, (3S,6R)-1-Hydroxy-3-(indol-3-yl)methyl-6-isobutylpiperazine-2,5-dione], 10 µg/mL (≈ 31.7 µM). Regarding `CC(C)Cc1c(Cl)nc(Cc2c[nH]c3ccccc23)c(=O)n1O` [Compound A-38, 5-chloro-1-hydroxy-3-(indol-3-yl)methyl-6-isobutyl-1,2-dihydropyrazin-2-one], the IC50 came to 6 µg/mL (≈ 18.1 µM).

Take `COc1c(Cc2c[nH]c3ccccc23)nc(Cl)c(CC(C)C)[n+]1[O-]` [Compound A-46, 3-chloro-5-(indol-3-yl)methyl-2-isobutyl-6-methoxypyrazine-1-oxide]: the IC50 came to 30 µg/mL (≈ 86.7 µM). For `COC(=O)n1cc(Cc2nc(Cl)c(CC(C)C)n(OC)c2=O)c2ccccc21` [Compound A-47, 5-Chloro-6-isobutyl-3-[(1-methoxycarbonyl)indol-3-yl]methyl-1-methoxy-12,-dihydropyrazin-2-one] the value was 25 µg/mL (≈ 61.9 µM); for `CC(C)Cc1c(=O)[nH]c(Cc2c[nH]c3ccccc23)c(N)[n+]1[O-]` [Compound A-62, 5-amino-6-(indol-3-yl)methyl-3-isobutyl-1,2-dihydropyrazin-2-one 4-oxide], 12 µg/mL (≈ 38.4 µM); for `CC(=O)Nc1c(Cc2c[nH]c3ccccc23)[nH]c(=O)c(CC(C)C)[n+]1[O-]` [Compound A-63, 5-acetamino-6-(indol-3-yl)methyl-3-isobutyl1,2-dihydropyrazin-2-one 4-oxide], 30 µg/mL (≈ 84.6 µM). Regarding `CCc1c(Cc2c[nH]c3ccccc23)[nH]c(=O)c(CC(C)C)[n+]1[O-]` [Compound A-82b, 5-Ethyl-6-(indol-3-yl)methyl-3-isobutyl-1,2-dihydropyrazin-2-one 4-oxide], the IC50 worked out at 12 µg/mL (≈ 36.9 µM). On to `COc1c(Cc2c[nH]c3ccccc23)[nH]c(=O)c(Cc2ccccc2)[n+]1[O-]` [Compound E-6d, 3-Benzyl-6-(indol-3-yl)methyl-5-methoxy-1,2-dihydropyrazin-2-one 4-oxide], for which the IC50 worked out at 5 µg/mL (≈ 13.8 µM). On to `COc1c(Cc2c[nH]c3ccccc23)[nH]c(=O)c(CC2CCCCC2)[n+]1[O-]` [Compound E-6f, 3-Cyclohexylmethyl-6-(indol-3-yl)methyl-5-methoxy-1,2-dihydropyrazin-2-one 4-oxide], for which the IC50 was determined as 4 µg/mL (≈ 10.9 µM).

On to `COc1c(Cc2c[nH]c3ccccc23)[nH]c(=O)c(Cc2c[nH]c3ccccc23)[n+]1[O-]` [Compound E-6g, 3,6-Di(indol-3-yl)methyl-5-methoxy-1,2-dihydropyrazin-2-one 4-oxide], for which the IC50 stood at 1.5 µg/mL (≈ 3.75 µM).

Turning to `CCOc1c(Cc2c[nH]c3ccccc23)[nH]c(=O)c(CC(C)C)[n+]1[O-]` [Compound E-12, 5-Ethoxy-6-(indol-3-yl)methyl-3-isobutyl-1,2-dihydropyrazin-2-one 4-oxide], the IC50 was 8 µg/mL (≈ 23.4 µM).

For `CC(C)Cc1c(=O)[nH]c(-c2c[nH]c3ccccc23)c(Cl)[n+]1[O-]` [Compound E-30, 5-Chloro-6-(indol-3-yl)-3-isobutyl-1,2-dihydropyrazin-2-one 4-oxide], the IC50 is 8 µg/mL (≈ 25.2 µM). The result for `COc1c(Cc2c[nH]c3ccc(F)cc23)[nH]c(=O)c(CC(C)C)[n+]1[O-]` [Compound E-34a, 6-[(5-Fluoro)indol-3-yl]methyl-3-isobutyl-5-methoxy-1,2-dihydropyrazin-2-one 4-oxide] reads 10 µg/mL (≈ 29 µM).
